Measured values from patent US5225417A, “Opioid agonist compounds” (priority 1992, dated 1993).
Structures can show the parent of a compound that is named as a salt. Where two headings read alike, the source gives them in different places.

Tests used:
[1] = system: mice or rats; details: background statement; cited from earlier work
[2] = system: mice; test: PBQ Writhing Assay; type: in vivo, Charles River male albino mice; details: for ED50: Mus musculus, 0.5 h
Description: The Writhing Assay is one of the most widely-used experimental procedures for measuring the analgesic activity of different narcotic and nonnarcotic analgesic agents, and involves the continuous, chemically-induced pain of visceral origin to an animal, such as a mouse or rat. [Gyires et al., Arch. int. Pharmacodyn, 267, 131-140 (1984); C. Vander Wende et al., Fed. Proc., 15, 494 (1956); Koster et al. Fed. Proc. 18 412 (1959); and Witken et al., J. Pharmacol. exp. Ther., 133, 400-408 (1961).] Chemicals which may be used to induce this pain include phenylbenzoquinone (PBQ) and acetic acid. As a result of the chemical irritation to the animal, a characteristic stretching and writhing of the animal (dorsiflexion of the animal's back, extension of its hindlimbs and the strong contraction of its abdominal musculature) will generally occur. […] Drugs which reduce the number of writhes of the animal appear to restore the normal nociceptive threshold of the animal.
Charles River male albino mice, weighing 20 to 30 grams were used in this assay.
Thirty minutes after subcutaneous or intragastric administration to ten mice of either 10 mg or 30 mg per kilogram of body weight of a compound of the present invention ("test compound"), […] of body weight of a 0.025% w/v solution of PBQ was injected intraperitoneally into each mouse. Ten mice which were given saline in place of a test compound of the invention were used as a control group.
Five minutes later, each mouse was individually placed into a glass beaker for observation, and the number of writhes occurring during the following ten-minute period was counted.
A test compound was considered to be "active" in this assay (to have produced analgesia in a mouse) if, after the administration of the compound to the mouse, the number of writhes elicited by a mouse injected with PBQ was equal to, or less than, one-half the median number of writhes recorded for the saline-treated control group of mice that day, as described by Taber in "Predictive Value of Analgesic Assays in Mice and Rats," Advances in Biochemical Psychopharmacology, 8, 191 (1974).
The standard initial screening doses of a test compound employed in this assay were 10 and/or 30 […] for both routes of administration.

[3] = target: μ opioid receptor (Rattus norvegicus, UniProt P33535); test: Opiate Binding Assay, μ receptor (3[H]-DAMGO displacement); details: for Mean IC50 Value, μ: rat forebrain membranes, 37° C., pH 7.4
[4] = target: δ opioid receptor (Rattus norvegicus, UniProt P33533); test: Opiate Binding Assay, δ receptor (3[H]-DSLET displacement); details: for Mean IC50 μ/δ Ratio: ratio of mean IC50 values for μ and δ opioid receptors
[5] = system: mice or rats; test: Tail Flick Assay; type: in vivo; details: for Tail flick activity, intracerebroventricular / active dose in tail flick, intracerebroventricularly: intracerebroventricular
Description: The "Tail Flick Assay" uses thermal pain of transient duration, and is a test in which the pain threshold of the mice or rats being analyzed has not been altered. It is useful for evaluating the ability of a compound or drug to increase the animal's pain threshold (i.e. prolong response latencies), rather than to restore normal thresholds.
The heat-induced response to the Tail Flick Assay is a reflex reaction mediated at the level of the spinal cord.
Opiate compounds having clinical efficacy as analgesics generally increase tail flick latencies. Thus, morphine and codeine are generally determined to be active in this test.
The Tail Flick Assay was performed generally in the manner described by G. Woolfe et al., "The Evaluation of the Analgesic Action of Pethidine Hydrochloride (Demerol)," J. Pharmacol. Exp. Ther., 80, 300, (1944), F. D'Amour et al., "A Method for Determining Loss of Pain Sensation," J. Pharmacol. Exp. Ther., 72, 74, 300-307 (1941), and E. Drower et al., "The Antinociceptive Effects of Prostaglandin Antagonists in the Rat," European Journal of Pharmacology, 133, 249-256 (1987).
Male Charles River albino mice and male Charles River Sprague-Dawley rats weighing 20 to 30 g and 200 to 250 g, respectively, was employed in this assay.
Tail flick response latencies (defined as the time that elapsed between the onset of a high intensity beam of light and the reflex removal of the mouse or rat's tail) was measured before (baseline) and again at fixed intervals after subcutaneous or intracerebro-ventricular administration of one of the compounds of the invention, or after the administration of saline (controls). The cut-off latencies established to prevent tissue damage in the animals are 12 seconds or 14 seconds in the mouse and rat, respectively, in the Tail Flick Assay. The significance of any increase in tail flick response latency is determined using analyses of variance.
One way analyses of variance were used to determine the significance of the effect of the compounds of the invention on response latencies.
"Activity" or "Inactivity" was determined at a particular concentration of the compound by a significant increase in tail flick latency above normal latencies.
The numbers in parentheses are calculated ED50 values.

[6] = sc, subcutaneous, mice, 30 min before PBQ, read-out: PBQ writhing assay ED50, S.C.

Chain of μ opioid receptor (P33535 whole entry): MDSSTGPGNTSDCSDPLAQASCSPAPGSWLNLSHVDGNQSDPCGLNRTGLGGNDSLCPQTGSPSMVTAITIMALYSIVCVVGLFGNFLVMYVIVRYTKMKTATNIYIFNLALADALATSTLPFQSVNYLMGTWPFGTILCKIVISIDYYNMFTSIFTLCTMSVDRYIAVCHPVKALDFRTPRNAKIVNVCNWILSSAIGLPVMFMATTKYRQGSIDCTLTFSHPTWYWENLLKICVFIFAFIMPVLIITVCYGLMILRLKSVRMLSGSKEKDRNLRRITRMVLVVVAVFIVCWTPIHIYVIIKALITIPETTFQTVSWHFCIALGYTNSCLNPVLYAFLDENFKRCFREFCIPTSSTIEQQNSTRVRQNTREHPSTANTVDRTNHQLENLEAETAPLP
Chain of δ opioid receptor (P33533 whole entry): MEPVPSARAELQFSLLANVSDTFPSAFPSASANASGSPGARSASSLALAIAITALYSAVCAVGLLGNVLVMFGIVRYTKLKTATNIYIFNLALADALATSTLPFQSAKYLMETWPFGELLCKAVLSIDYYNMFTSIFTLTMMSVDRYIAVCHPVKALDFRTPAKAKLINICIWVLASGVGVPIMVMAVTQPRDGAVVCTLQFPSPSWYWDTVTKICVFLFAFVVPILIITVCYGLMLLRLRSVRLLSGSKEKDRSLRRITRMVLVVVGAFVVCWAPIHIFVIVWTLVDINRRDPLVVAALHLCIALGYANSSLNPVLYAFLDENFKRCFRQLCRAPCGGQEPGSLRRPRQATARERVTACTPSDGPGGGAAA

| SMILES | activity in tail flick test (general knowledge) [1] | IC50 [3] | IC50 [4] | Mean IC50 μ/δ Ratio [4] | further results |
| --- | --- | --- | --- | --- | --- |
| CN1CC[C@]23c4c5ccc(O)c4O[C@H]2[C@@H](O)C=C[C@H]3[C@H]1C5 [morphine] | active | – | – | – | – |
| Oc1ccc2c3c1O[C@H]1c4oc5ccccc5c4C[C@@]4(O)[C@@H](C2)NCC[C@]314 (relative stereo) [Example II, 6,7,8,14bβ-Tetrahydro-4,8(R,α)-methano-4bS*-5H-bisbenzofuro[3,2-e:2',3'-g]isoquinoline-1,8aβ(9H)-diol] | – | 291 nM | 6.5 nM | 45 | Number of mice in 10 exhibiting inhibition of writhing, I.G. ([2]; intragastric, dose not stated in table (screening doses 10 and/or 30 mpk)): 4/10; Number of mice in 10 exhibiting inhibition of writhing, S.C. ([2]; subcutaneous, dose not stated in table (screening doses 10 and/or 30 mpk)): 4/10; Percent Displacement, μ ([3]; μ receptor, 3[H]-DAMGO 2.0 nM, test concentration not given): 2 |
| COc1ccc2c3c1O[C@H]1[C@@H](O)C=C[C@H]4[C@@H](C2)N(C)CC[C@@]341 [codeine] | active | – | – | – | – |
| CC(=O)Oc1ccccc1C(=O)O [aspirin] | little activity | – | – | – | – |
| CO[C@@]12Cc3c(oc4ccccc34)[C@@H]3Oc4c(O)ccc5c4[C@@]31CCN(C)[C@@H]2C5 (relative stereo) [Example IX, 6,7,8,8a,9,14b-hexahydro-8aβ-methoxy-7-methyl-4,8(R,α)-methano-4bS*-5H-bisbenzofuro [3,2-e:2',3'-g]isoquinolin-1-ol, monohydrochloride] | – | 430 nM | 1 nM | 430 | Tail flick activity, intracerebroventricular [5]: 10.5 nmol; active dose in tail flick, intracerebroventricularly [5]: ca. 10 nmoles; Tail flick activity, subcutaneous (active at) [5]: > 30 mpk |
| CN1CC[C@]23c4c5ccc(O)c4O[C@H]2c2[nH]c4ccc(C(=O)O)cc4c2C[C@@]3(O)[C@H]1C5 (relative stereo) [Example V, 5,6,7,8,8a,9,14,14bβ-Octahydro-1,8aβ-dihydroxy-7-methyl-4,8(R,α)-methano-4bS*-benzofuro [2,3-a]pyrido [4,3-b]carbazole-11-carboxylic acid, monohydrochloride] | – | 810 nM | 660 nM | 1.2 | ED50 ([2]; po, intragastric, mice, 30 min before PBQ, read-out: PBQ writhing assay ED50, I.G.): 3.4 mg/kg; ED50 [2, 6]: 1.3 mg/kg |
| CC(C)=CCN1CC[C@]23c4c5ccc(O)c4O[C@H]2c2oc4ccccc4c2C[C@@]3(O)[C@H]1C5 (relative stereo) [Example III, 6,7,8,14bβ-tetrahydro-7-(3-methyl-2-butenyl)-4,8 (R,α)-methano-4bS*-5H-bisbenzofuro[3,2-e:2',3'-g]isoquinoline-1,aβ(9H)-diol, monohydrochloride] | – | 4670 nM | 51.1 nM | 91 | – |
| CC(=O)Oc1ccc2c3c1O[C@H]1c4oc5ccccc5c4C[C@@]4(OC(C)=O)[C@@H](C2)N(C#N)CC[C@]314 (relative stereo) [Example I, 1,8aβ-Bis(acetyloxy)-5,6,8,8a,9,14bβ-hexahydro-4,8(R,α)-methano-4bS*-7H-bisbenzofuro [3,2-e:2',3'-g]isoquinoline-7-carbonitrile] | – | – | – | – | ED50 [2, 6]: 2.4 mg/kg; PBQ writhing assay ED50, I.G. ([2]; intragastric, mice, 30 min before PBQ): inactive; inhibition at 0.1 µM ([4]; read-out: Percent Displacement, δ at 100 nM): 14% |
| Oc1ccc2c3c1O[C@H]1c4oc5ccccc5c4C[C@@]4(O)[C@@H](C2)N(Cc2ccccc2)CC[C@]314 (relative stereo) [Example XVI, 6,7,8,14bβ-Tetrahydro-7-(2-phenylmethyl)-4,8 (R,α)-methano-4bS*-5H-bisbenzofuro [3,2-e:2',3'-g]isoquinoline-1,8aβ(9H)-diol] | – | – | – | – | Mean IC50 Value, μ ([3]; 3[H]-DAMGO 2.0 nM): inactive; inhibition at 0.05 µM ([4]; read-out: Percent Displacement, δ at 50 nM): 50% |
| Cc1cc(CC(=O)O)n(C)c1C(=O)c1ccc(Cl)cc1 [Zomax] | little activity | – | – | – | – |
| Oc1ccc2c3c1O[C@H]1c4oc5ccccc5c4C[C@@]4(O)[C@@H](C2)N(Cc2ncc[nH]2)CC[C@]314 (relative stereo) [Example XV, 5,6,7,8,14,14bβ-Hexahydro-(1H-imidazol-2-ylmethyl)-4,8(R,α)-methano-4bS*-benzofuro[2,3-a]pyrido [4,3-b]carbazole-1,8aβ(9H)-diol, hydrochloride] | – | – | 79.2 nM | – | Mean IC50 Value, μ ([3]; 3[H]-DAMGO 2.0 nM): inactive; Tail flick activity, intracerebroventricular [5]: ~ 10 nmoles; active dose in tail flick, intracerebroventricularly [5]: ca. 10 nmoles; Tail flick activity, subcutaneous (active at) [5]: inactive |
